# Results reported in patent publication US6866837B2, “Radiolabeled peptides for the diagnosis and treatment of breast and prostate tumors and metastases of such tumors” (Mallinckrodt Inc., priority 1998, dated 2005).
# Where two headings read alike, the source gives them in different places.
# Experiments:
# 7315b cells = settings: read-out: agonistic activities on bombesin stimulated prolactin secretion, IC50
# [1] = for 2 h after labeling with IN-111 up to 100 Mbq per jj. g; HPLC
# [2] = rats
# [3] = test system: bombesin receptor positive prolactinoma 7315b; settings: female Lewis rats; visualized by scintigraphy
# in vivo = settings: rat, total radioactivity
# [4] = rats; cited from earlier work
# [5] = Dynamic gamma camera: clearance and excretion of radioactivity; settings: rat, in vivo
# bombesin receptors = experiment: Receptor autoradiography of human tumor tissue sections with the radioligand; format: binding
# Description: Various tumor tissue samples, including surrounding tissue, were harvested from human patients and/or human cadavers, and frozen. The samples were cut on a cryostat, mounted on microscope slides, and then stored at −20° C. for […] improve adhesion of the tissue to the slide. The slide-mounted tissue sections were allowed to reach room temperature and preincubated in 50 mmol/1 Tris-HCl, 130 mmol/1 NaCl, 4.7 mmol/1 KCl, 5 mmol/I MgCl2, 1 mmol/l ethylene glycol-bi (b-aminoethylether)-N, N, N′, N′-tetraacetic acid, and 0.5% bovine serum albumin, pH 7.4 (preincubation solution), for 30 min. at 25° C. The slides are then incubated in a solution containing the same medium as the preincubation solution except the bovine serum albumin is omitted, and the following compounds are added: 20000 dpm/100 ml of the radioligand of Example 1, 0.025% bacitracin, 1 mmol/l dithiothreitol, 2 mg/ml chymostatin, and 4 mg/ml leupeptin, pH=6.5. The slides are incubated at room temperature with the radioligand for 150 min., as described by Mantyh et al. (Gasteroenterology, 1994, 107, 1019-30). After the incubation, the slides are rinsed with four washes of 30 sec each in ice-cold preincubation solution, pH 7.4, dipped in ice-cold water, and then quickly dried in a refrigerator under a stream of cold air. The sections are subsequently exposed to a ^3H Ultrofilm for 1 week, to detect the precise location of the radioactivity.
# The films were evaluated to determine the ability to distinguish the tumor from the surrounding tissue.
# [6] = Breat Cancer Metastases, 5 samples
# [7] = Non Small Cell Lung Carcinoma, 34 samples
# [8] = Prostate Cancer Metastases, 5 samples
# [9] = Small Cell Lung Carcinoma, 10 samples
# [10] = Uterus Leomyosarcoma Tumor, 3 samples
# 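For Tissue RA, Pancreas in this document: radiolabelled ligand targeting bombesin receptors, given by intravenous injection at varied injected mass.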
# 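For ratio vs. blood, Adrenal in this document: radiolabelled ligand targeting bombesin receptors, given by intravenous injection at varied injected mass.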
# 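For ratio vs. blood, Colon in this document: radiolabelled ligand targeting bombesin receptors, given by intravenous injection at varied injected mass.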
# 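For uptake in pancreas and tissues of the GI tract in this document: radiolabelled ligand targeting bombesin receptors, given by intravenous injection at varied injected mass.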
molecule,measurement,setting,value
"CSCC[C@H](NC(=O)[C@H](CC(C)C)NC(=O)[C@H](Cc1c[nH]cn1)NC(=O)CNC(=O)[C@@H](NC(=O)[C@H](C)NC(=O)[C@H](Cc1c[nH]c2ccccc12)NC(=O)[C@H](CCC(N)=O)NC(=O)[C@H](CC(N)=O)NC(=O)CNC(=O)[C@H](Cc1ccc(O)cc1)NC(=O)[C@H](CCCNC(=N)N)NC(=O)[C@H](CCC(N)=O)NC(=O)[C@@H]1CCCN1C(=O)CN(CCN(CCN(CC(=O)O)CC(=O)O)CC(=O)O)CC(=O)O)C(C)C)C(N)=O [[^111In-DTPA^0, Pro^1, Tyr^4] bombesin, metal not drawn]",IC50,7315b cells,8 nM
same,radiochemically stable,[1],> 95%
same,uptake in pancreas and tissues of the GI tract,[2],high and specific uptake
same,"Tissue RA, Pancreas","[2]; 48 h after injection, 0.01 μg",1.0 % ID/g
same,"ratio vs. blood, Adrenal","[2]; 48 h after injection, 0.01 μg",34
same,"ratio vs. blood, Colon","[2]; 48 h after injection, 0.01 μg",85
same,"ratio vs. blood, Pancreas","[2]; 48 h after injection, 0.01 μg",1210
same,"ratio vs. blood, Stomach","[2]; 48 h after injection, 0.01 μg",40
same,"ratio vs. blood, Adrenal","[2]; 48 h after injection, 0.025 μg",30
same,"ratio vs. blood, Colon","[2]; 48 h after injection, 0.025 μg",64
same,"ratio vs. blood, Pancreas","[2]; 48 h after injection, 0.025 μg",1217
same,"ratio vs. blood, Stomach","[2]; 48 h after injection, 0.025 μg",64
same,"ratio vs. blood, Adrenal","[2]; 48 h after injection, 0.1 μg",26
same,"ratio vs. blood, Colon","[2]; 48 h after injection, 0.1 μg",73
same,"ratio vs. blood, Pancreas","[2]; 48 h after injection, 0.1 μg",856
same,"ratio vs. blood, Stomach","[2]; 48 h after injection, 0.1 μg",50
same,"ratio vs. blood, Adrenal","[2]; 48 h after injection, 0.5 μg",18
same,"ratio vs. blood, Colon","[2]; 48 h after injection, 0.5 μg",52
same,"ratio vs. blood, Pancreas","[2]; 48 h after injection, 0.5 μg",574
same,"ratio vs. blood, Stomach","[2]; 48 h after injection, 0.5 μg",50
same,clearance of radioactivity from the blood compartment,dynamic gamma camera,rapid clearance
same,urinary excretion,in 1 h,35%
same,urinary excretion,in 20 h,70%
same,uptake in bombesin receptor positive prolactinoma 7315b,[3],Specific uptake
same,tissue uptake at 48 h,"in vivo; adrenal, 0.01 ug",0.029 %ID/g
same,tissue uptake at 48 h,"in vivo; adrenal, 0.025 ug",0.03 %ID/g
same,tissue uptake at 48 h,"in vivo; adrenal, 0.1 ug",0.022 %ID/g
same,tissue uptake at 48 h,"in vivo; adrenal, 0.5 ug",0.014 %ID/g
same,tissue uptake at 48 h,"in vivo; blood, 0.01 ug",0.0009 %ID/g
same,tissue uptake at 48 h,"in vivo; blood, 0.025 ug",0.001 %ID/g
same,tissue uptake at 48 h,"in vivo; blood, 0.5 ug",0.0008 %ID/g
same,tissue uptake at 48 h,"in vivo; blood, iv, 0.1 ug",0.0009 %ID/g
same,tissue uptake at 48 h,in vivo; bombesin receptor positive tissues,0.025 %ID/g
same,tissue uptake at 48 h,"in vivo; colon, 0.01 ug",0.072 %ID/g
same,tissue uptake at 48 h,"in vivo; colon, 0.025 ug",0.063 %ID/g
same,tissue uptake at 48 h,"in vivo; colon, 0.1 ug",0.061 %ID/g
same,tissue uptake at 48 h,"in vivo; colon, 0.5 ug",0.036 %ID/g
same,tissue uptake at 48 h,"in vivo; pancreas, 0.025 ug",1.2 %ID/g
same,tissue uptake at 48 h,"in vivo; pancreas, 0.1 ug",0.72 %ID/g
same,tissue uptake at 48 h,"in vivo; pancreas, 0.5 ug",0.43 %ID/g
same,tissue uptake at 48 h,"in vivo; stomach, 0.01 ug",0.035 %ID/g
same,tissue uptake at 48 h,"in vivo; stomach, 0.025 ug",0.065 %ID/g
same,tissue uptake at 48 h,"in vivo; stomach, 0.1 ug",0.042 %ID/g
same,tissue uptake at 48 h,"in vivo; stomach, 0.5 ug",0.036 %ID/g
same,uptake in the pancreas and tissues of the GI-tract,[4],high and specific uptake
same,total body retention,[5],10%
pGlu-Gln-Arg-Tyr-Gly-Asn-Gln-Trp-Ala-Val-Gly-His-Leu-Met-NH2 [[^125I-Tyr^4] bombesin],% Positive,"bombesin receptors; Breast Cancer, 95 samples",69%
same,Number Positive,"bombesin receptors; Breast Cancer, 95 samples",66
same,% Positive,bombesin receptors; [6],100%
same,Number Positive,bombesin receptors; [6],5
same,% Positive,"bombesin receptors; Colon Cancer, 18 samples",6%
same,Number Positive,"bombesin receptors; Colon Cancer, 18 samples",1
same,% Positive,"bombesin receptors; Gastric Cancer, 27 samples",0%
same,Number Positive,"bombesin receptors; Gastric Cancer, 27 samples",0
same,% Positive,"bombesin receptors; Gastrinomas, 4 samples",100%
same,Number Positive,"bombesin receptors; Gastrinomas, 4 samples",4
same,% Positive,"bombesin receptors; Glioblastomas, 4 samples",100%
same,Number Positive,"bombesin receptors; Glioblastomas, 4 samples",4
same,% Positive,"bombesin receptors; Melanomas, 8 samples",12%
same,Number Positive,"bombesin receptors; Melanomas, 8 samples",1
same,% Positive,bombesin receptors; [7],0%
same,Number Positive,bombesin receptors; [7],0
same,% Positive,"bombesin receptors; Pancreatic Cancer, 28 samples",0%
same,Number Positive,"bombesin receptors; Pancreatic Cancer, 28 samples",0
same,% Positive,bombesin receptors; [8],100%
same,Number Positive,bombesin receptors; [8],5
same,% Positive,"bombesin receptors; Prostate Cancer, 28 samples",100%
same,Number Positive,"bombesin receptors; Prostate Cancer, 28 samples",28
same,% Positive,bombesin receptors; [9],20%
same,Number Positive,bombesin receptors; [9],2
same,% Positive,bombesin receptors; [10],33%
same,Number Positive,bombesin receptors; [10],1
